In patent publication US20260001914A1, “MACROCYCLIC PEPTIDES TARGETING KRAS” (Merck Sharp & Dohme LLC, priority 2022, published 2026):
*1 amine or outer side, *2 acyl side, *3 side chain or, on linkers, in order; H or OH if unused. Where a SMILES comes first, the peptide text is derived from it. Bridges are numbered along the chain shown (N, C = ends). Where no end group is shown, it is not given here. [ ]: non-standard residue; d: D form. X48 = CCCC[C@@H](/C=C\[C@@H](Cc1cccnc1)C(=O)[*:2])N[*:1]; Ala(pyrimidin-5-yl) = N[C@@H](Cc1cncnc1)C(=O)O; Lys(N3) = [N-]=[N+]=NCCCC[C@H](N)C(=O)O; X21 = O=C([C@@H]1C[C@H]1CN[*:1])[*:2]; Phe(2-F) = N[C@@H](Cc1ccccc1F)C(=O)O; X31 = O=C([C@H](CCC1CC1)N[*:1])[*:2]; NMe3Pal = CN[C@@H](Cc1cccnc1)C(=O)O; X1 = O=C(C12CC(CN[*:1])(C1)C2)[*:2]; X41 = COCCC[C@H](N[*:1])C(=O)[*:2]; Aha = [N-]=[N+]=NCC[C@H](N)C(=O)O; NMeR = CN[C@@H](CCCNC(=N)N)C(=O)O; Ala(cPr) = N[C@@H](CC1CC1)C(=O)O; NMeF = CN[C@@H](Cc1ccccc1)C(=O)O; PhLac = O=C(O)[C@@H](O)Cc1ccccc1; 3Pal = N[C@@H](Cc1cccnc1)C(=O)O; Ahp(2) = CCCCC[C@H](N)C(=O)O; Cba = N[C@@H](CC1CCC1)C(=O)O; αMeC = C[C@](N)(CS)C(=O)O; NMeA = CN[C@@H](C)C(=O)O; Nle = CCCC[C@H](N)C(=O)O

Columns and labels:
[1] = target: phosphorylation levels of ERK1/2 in AsPC-1 (homozygous KRAS-G12D) cells (Homo sapiens, UniProt P01116, G12D); assay: Cellular phospho-ERK assay in AsPC-1 cells (Alpha Screen), assay medium without fetal bovine serum; type: cell-based; settings: phospho-ERK AlphaScreen, 18 h;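 further: signal taken as phospho-ERK over total ERK per well, both detected in one multiplex bead assay, EC50 from four-parameter logistic fit of dose-response curves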
[2] = target: Biotin-labeled KRAS-G12D protein (UniProt P01116-2 1-169, limits assumed, biotin label (site not stated); loaded with BODIPY-GDP); assay: cell-based or functional assay

| Molecule | EC50 [1] [µM] | SOS assay EC50 [2] [µM] |
| --- | --- | --- |
| CCCC[C@@H]1NC(=O)[C@H](Cc2ccccc2F)NC(=O)C(CC2CC(F)(F)C2)NC(=O)[C@H](Cc2cncnc2)NC(=O)[C@H](C)N(C)C(=O)[C@H](Cc2ccccc2)OC(=O)C23CC(CNC(=O)[C@H](Cc4cccnc4)N(C)C1=O)(C2)C3 (single isomer, unassigned) [compound 122, cyclo(FLac-NMeA-PyrimAla-rF2Cba-Phe2F-Nle-NMe3Pal-amBCP)] | > 50.8 | – |
| CCCC[C@@H]1NC(=O)[C@H](Cc2ccccc2F)NC(=O)C(CC2CC(F)(F)C2)NC(=O)[C@H](Cc2cncnc2)NC(=O)[C@H](C)N(C)C(=O)[C@H](Cc2ccccc2)OC(=O)C23CC(CNC(=O)[C@H](Cc4cccnc4)N(C)C1=O)(C2)C3 (single isomer, unassigned) [compound 123, cyclo(FLac-NMeA-PyrimAla-rF2Cba-Phe2F-Nle-NMe3Pal-amBCP)] | > 50.8 | – |
| CON=C1C[C@@H](Cc2ccccc2)C(=O)N(C)[C@@H](C)C(=O)N[C@@H](Cc2cncnc2)C(=O)N[C@@H](CC2CC2)C(=O)N[C@@H](Cc2ccccc2F)C(=O)N[C@@H](CCC(C)(F)F)C(=O)N(C)[C@@H](Cc2ccccc2)C(=O)NCC23CC1(C2)C3 (single isomer, unassigned) [compound 177, cyclo(CPhe-NMeA-PyrimAla-cPrA-Phe2F-Nle3F2-NMeF-MeOximamBCP)] | 3.4 | – |
| CON=C1C[C@@H](Cc2ccccc2)C(=O)N(C)[C@@H](C)C(=O)N[C@@H](Cc2cncnc2)C(=O)N[C@@H](CC2CC2)C(=O)N[C@@H](Cc2ccccc2F)C(=O)N[C@@H](CCC(C)(F)F)C(=O)N(C)[C@@H](Cc2ccccc2)C(=O)NCC23CC1(C2)C3 (single isomer, unassigned) [compound 178, cyclo(CPhe-NMeA-PyrimAla-cPrA-Phe2F-Nle3F2-NMeF-MeOximamBCP)] | 0.128 | – |
| CCCC[C@@H]1NC(=O)[C@H](Cc2ccc(C(F)(F)F)nc2)NC(=O)[C@H](CCCn2ccnc2)N(C)C(=O)[C@H](Cc2ccccc2)OC(=O)C23CC(CNC(=O)[C@H](Cc4ccccc4)N(C)C(=O)[C@H](CCCC)NC(=O)[C@H](Cc4ccccc4F)NC1=O)(C2)C3 (single isomer, unassigned) [compound 218, cyclo(FLac-NMeNvalmid-4CF33Pal-Nle-Phe2F-Nle-NMeF-amBCP)] | > 50.8 | – |
| CCCC[C@@H]1NC(=O)[C@H](Cc2ccc(C(F)(F)F)nc2)NC(=O)[C@H](CCCn2ccnc2)N(C)C(=O)[C@H](Cc2ccccc2)OC(=O)C23CC(CNC(=O)[C@H](Cc4ccccc4)N(C)C(=O)[C@H](CCCC)NC(=O)[C@H](Cc4ccccc4F)NC1=O)(C2)C3 (single isomer, unassigned) [compound 219, cyclo(FLac-NMeNvaImid-4CF33Pal-Nle-Phe2F-Nle-NMeF-amBCP)] | > 50.8 | – |
| CCCC[C@@H]1NC(=O)[C@H](Cc2cncnc2)NC(=O)[C@H](CCCn2ccnc2)N(C)C(=O)[C@H](Cc2ccccc2)OC(=O)C23CC(CNC(=O)[C@H](Cc4ccccc4)N(C)C(=O)[C@H](CCCC)NC(=O)[C@H](Cc4ccccc4F)NC1=O)(C2)C3 (single isomer, unassigned) [compound 222, cyclo(FLac-NMeNvalmid-PyrimAla-Nle-Phe2F-Nle-NMeF-amBCP)] | > 50.8 | – |
| CCCC[C@@H]1NC(=O)[C@H](Cc2cncnc2)NC(=O)[C@H](CCCn2ccnc2)N(C)C(=O)[C@H](Cc2ccccc2)OC(=O)C23CC(CNC(=O)[C@H](Cc4ccccc4)N(C)C(=O)[C@H](CCCC)NC(=O)[C@H](Cc4ccccc4F)NC1=O)(C2)C3 (single isomer, unassigned) [compound 223, cyclo(FLac-NMeNvalmid-PyrimAla-Nle-Phe2F-Nle-NMeF-amBCP)] | 11.1 | – |
| CCCC[C@H]1/C=C\[C@@H](Cc2cccnc2)C(=O)NCC23CC(C2)(C3)C(=O)O[C@@H](Cc2ccccc2)C(=O)N(C)[C@@H](C)C(=O)N[C@@H](Cc2cncnc2)C(=O)N[C@@H](CCCC)C(=O)N[C@@H](Cc2ccccc2F)C(=O)N1 [SEQ ID NO: 137, cyclo(FLac-NMeA- PyrimAla-Nle-Phe2F- Nlecalken3Pal-amBCP)] (cyclo([NMeA][Ala(pyrimidin-5-yl)][Nle][Phe(2-F)][X48][X1][PhLac])) | 11.2 | – |
| C[C@H]1C(=O)N[C@@H](Cc2cncnc2)C(=O)N[C@@H](CC2CC2)C(=O)N[C@@H](Cc2ccccc2F)C(=O)NC2CC/C=C\CC[C@@H](C(=O)NCC34CC(C3)(C4)C(=O)O[C@@H](Cc3ccccc3)C(=O)N1C)N(C)C2=O [SEQ ID NO: 182, cyclo(FLac-NMeA-PyrimAla-cPrA-Phe2F-Hag-NMeHag-amBCP)] | 41.2 | – |
| CCCC[C@@H]1NC(=O)[C@H](CCCOC)NC(=O)[C@H](CC2CCC2)NC(=O)[C@H](Cc2cccnc2)NC(=O)[C@H](CCCNC(=N)N)NC(=O)[C@H](Cc2ccccc2)NC(=O)CSC[C@@](C)(C(N)=O)NC(=O)[C@H](Cc2ccccc2)N(C)C1=O [compound 55, cyclo(F-R-3Pal-cBuA-NvaOMe-Nle-NMeF-aMeCl-ClAc)] ({CH2CO}-FR[3Pal][Cba][X41][Nle][NMeF][αMeC]-NH2; thioether N-8) | > 50.8 | – |
| CCCC[C@@H]1NC(=O)[C@H](Cc2cccnc2)NC(=O)[C@H](CCCNC(=N)N)N(C)C(=O)[C@H](Cc2ccccc2)NC(=O)[C@@H]2C[C@H]2CNC(=O)[C@H](Cc2ccccc2)N(C)C(=O)[C@H](CCCCN=[N+]=[N-])NC(=O)[C@H](Cc2ccc(OC)cc2)NC1=O [compound 94, cyclo(F-NMeR-3Pal-Nle-TyrOMe-LysN3-NMeF-tamcPr)] (cyclo(F[NMeR][3Pal][Nle]Y(Me)[Lys(N3)][NMeF][X21])) | > 50.8 | – |
| CCCC[C@@H]1NC(=O)[C@H](C(C)C)NC(=O)[C@H](CC2CCC2)NC(=O)[C@H](Cc2cccnc2)NC(=O)[C@H](CCN=[N+]=[N-])NC(=O)[C@H](Cc2ccccc2)NC(=O)C23CC(CNC(=O)[C@H](Cc4cccnc4)N(C)C1=O)(C2)C3 [compound 113, cyclo(F-DabN3~3Pal-cBuA-V-Nle-NMe3Pal-amBCP)] (cyclo(F[Aha][3Pal][Cba]V[Nle][NMe3Pal][X1])) | > 50.8 | – |
| C[C@H]1C(=O)N[C@@H](Cc2cncnc2)C(=O)N[C@@H](CC2CC2)C(=O)N[C@@H](Cc2ccccc2F)C(=O)N[C@@H](CCC2CC2)C(=O)N(C)[C@@H](Cc2ccccc2)C(=O)NCC23CC(C2)(C3)C(=O)O[C@@H](Cc2ccccc2)C(=O)N1C [compound 114, cyclo(FLac-NMeA-PyrimAla-cPrA-Phe2F-hcPrA-NMeF-amBCP)] (cyclo([Ala(cPr)][Phe(2-F)][X31][NMeF][X1][PhLac][NMeA][Ala(pyrimidin-5-yl)])) | 0.615 | – |
| C[C@H]1C(=O)N[C@@H](Cc2cncnc2)C(=O)N[C@@H](CC2CCC2)C(=O)N[C@@H](Cc2ccccc2F)C(=O)N[C@@H](CCC2CC2)C(=O)N(C)[C@@H](Cc2ccccc2)C(=O)NCC23CC(C2)(C3)C(=O)O[C@@H](Cc2ccccc2)C(=O)N1C [compound 115, cyclo(FLac-NMeA-PyrimAla-cBuA-Phe2F-hcPrA-NMeF-amBCP)] (cyclo([Cba][Phe(2-F)][X31][NMeF][X1][PhLac][NMeA][Ala(pyrimidin-5-yl)])) | 0.437 | – |
| cyclo(Y-hS-3Pal-cBuA-Phe2F-Nle-NMe3Pal-daMeC1-C1Ac) (peptide) | – | 6.68 |
| cyclo(dF-R-3Pal-Nie-TyrOMe-Nle-NMeF-c3amCblc) (peptide) | – | 0.223 |
| {CH2CO}-FRYLV[Ahp(2)][NMeF][dC] (thioether N-8 (inferred); not fully specified (C-terminus); printed as cyclo(F-R-Y-L-V-Ahp-NMeF-dC-C1Ac)) [cyclo(F-R-Y-L-V-Ahp-NMeF-dC-C1Ac)] | – | 7.14 |
